Tested on: dsRNA/DNA-specific antibodies
Experiment: Blocking test of dsRNA/DNA antibody immunofluorescence staining with poly(A)-poly(dT)
Assay type: binding
Conditions: 10 micrograms/milliliter Poly(A)-Poly(dT) mixed with antibody (1/20 final), incubated 10-15 minutes at room temperature
Method: The specificity of staining by antibodies was checked for by the blocking test with poly(A)-poly(dT), which was performed as follows:
Equal volumes of Poly(A)-Poly(dT) (20 ug/ml) and antibody (1/10) were mixed to give final concentrations of 10 ug/ml A.dT and 1/20 of serum (antibody). For controls, PBS was used in place of Poly(A)-Poly(dT). Samples were incubated for 10-15 minutes at room temperature.
Samples were then tested at final concentrations of 10, 2.0, 0.5 and 0.08 micrograms/ml, in each case incubating equal volumes of polynucleotide and antibody that are twice the final concentration, as above.

In the case of Poly(A)-Poly(dT), the “staining with dsRNA/DNA-specific antibodies after addition of blocker” value is reported as “completely blocked”.
